In patent US4769389A, “Oxygenated-alkyl derivatives of glutamic and aspartic acids with antagonistic activity to bio-active polypeptides and a method for their preparation” (priority 1985, dated 1988):
Converted amounts (≈) assume the structure as drawn. Like-named read-outs stand apart in the source and are kept apart here.

Legend:
guinea-pig gallbladder = experiment: Anti-CCK activity on guinea-pig gallbladders in vitro (contraction by CCK-8); conditions: for IC50: Cavia porcellus, CCK-8 10 ng/ml, in vitro
Description: ANTI-CCK ACTIVITY ON GUINEA-PIG GALLBLADDERS IN VITRO A longitudinal strip of guinea-pig gallbladder is placed in a bath for isolated organs in Krebs at a temperature of 32° C. and oxygenated continuously with an oxygen-CO2 mixture (95-[…]). The isometric contractions were detected by means of a force transducer and recorded. […] The results obtained are shown in Table 3 which gives the compounds tested and the IC50 values found which were calculated by the method of regression in a test of at least three experiments for each compound studied.

guinea pig gall bladders = experiment: Anti-CCK-8 activity on guinea-pig gallbladders in situ (in vivo); conditions: Cavia porcellus, iv; CCK-8 10 ng/kg i.v.; compound i.v.; read-out: ID50, anti-CCK-8 activity in situ
Description: In order to confirm the evidence of the studies in vitro, several of the more interesting compounds were tested in vivo with the use of guinea-pig gallbladders in situ.
The method used was that described by Ljungberg (Svensk. Farm. Tidskr. 69, 351-354, 1964).
Guinea-pigs having a weight of about 400 g anaesthetised with urethane were used; the substances being tested were administered intravenously (i.v.) into the jugular vein.
The responses of the gallbladder to the substances being tested were detected by means of a force transducer and recorded by means of a microdynamometer. 10 ng/kg of CCK 8 were chosen as the optimum contracting dose. The antagonistic compounds tested were administered in increasing doses so as to enable the calculation of an ID50 value, that is the dose (in mg/kg i.v.) having a 50% inhibiting effect against contractions induced by 10 ng/kg i.v. of CCK-8.

in vivo = conditions: mouse, iv
digestive tract = experiment: Antispastic activity, vegetable carbon test (speed of transit through stomach and intestine) in mice; type: in vivo; conditions: Mus musculus, ip, read-out: A[…] ED50 (dose which reduces the intestinal transit time of the carbon by 50%), intraperitoneally
Description: The anti-spastic activity which the present compounds exert on the whole of the digestive tract is also considerable. Measured in mice with the vegetable carbon test (speed of transit through the stomach and intestine) this activity is illustrated in the following table: […]

colon of rabbits = experiment: Antispastic activity in the colon of rabbits stimulated with CCK-8; type: in vivo, rabbit; design: Antispastic activity in colon, EXPERIMENT 1 / Antispastic activity in colon, EXPERIMENT 2: unit not given here; conditions: CCK 100 ng/kg
Description: The abdomen of anaesthetised rabbit is cut open to display the tranverse colon. A small balloon full of water is inserted at an established point and connected to a pressure transducer by means of a polyethylene cannula filled with H2 O.
The optimum sensitivity being fixed in relation to the physiological contractions, the products were administered through the femeral vein. Contractions were induced by the administration of 100 ng/kg of CCK.

[1] = tested on: pancreatitis in mice induced experimentally by cerulein; experiment: Pancreatitis induced by cerulein in mice; type: in vivo; conditions: for ED50: Mus musculus, ip, cerulein, mice
Description: Adult male mice received six injections of cerulein (Takus) (50 mcg/kg) each hour for six hours.
The compound was administered 30 minutes before each administration of cerulein. Nine hours after the beginning of the treatment, the blood was taken from the rectro-orbitory plexus after anaesthesia with ether, the animals were killed and the pancreas removed and weighed.

[2] = tested on: pancreatitis in rats induced experimentally by taurocholate; experiment: Pancreatitis induced by sodium taurocolate in rats; type: in vivo; conditions: for ED50: Rattus norvegicus, ip, taurocholate, rats
Description: The products under examination were administered intraperitoneally (i.p.) 30 minutes before the operation and 3 hours after the operation. Six hours after the laparatomy the blood was removed from the retro-orbitory plexus after anaesthesia with ether, the animals were killed and the pancreas was removed and weighed. The activity of the serum amylase was determined by the method described above.

Compound `CCCCCN(CCOCC)C(=O)C(CCC(=O)O)NC(=O)c1ccc(Cl)cc1` (stereo not shown) [Compound 12] has an IC50 (guinea-pig gallbladder) of 2.9 µg/mL (≈ 6.79 µM) and an ED50 (guinea pig gall bladders) of 4.44 mg/kg.

`CCCCCN(CCCOC)C(=O)C(CCC(=O)O)NC(=O)c1cccc(Cl)c1` (stereo not shown) [Compound 13] gave an IC50 (guinea-pig gallbladder) of 8.9 µg/mL (≈ 20.8 µM) and an ED50 (guinea pig gall bladders) of 6.7 mg/kg.

`CCCCCN(CCCOC)C(=O)C(CCC(=O)O)NC(=O)c1ccc(F)c(F)c1` (stereo not shown) [Compound 14] showed an IC50 (guinea-pig gallbladder) of 0.8 µg/mL (≈ 1.87 µM), an ED50 (guinea pig gall bladders) of 1.1 mg/kg and an LD50 (in vivo) of 425 mg/kg. It also gave a selectivity ratio (in vivo) of 386.

With `COCCCN(CCCC(C)C)C(=O)C(CCC(=O)O)NC(=O)c1ccc(Cl)c(Cl)c1` (stereo not shown) [Compound 15] the IC50 (guinea-pig gallbladder) was 0.7 µg/mL (≈ 1.47 µM), the ED50 (guinea pig gall bladders) was 0.84 mg/kg and the ED50 (digestive tract) was 44.2 mg/kg. The LD50 (in vivo) was 288 mg/kg and the selectivity ratio (in vivo) was 343.

In the case of `CCCCN(CCCOC)C(=O)C(CCC(=O)O)NC(=O)c1ccc(Cl)c(Cl)c1` (stereo not shown) [Compound 16], the IC50 (guinea-pig gallbladder) is reported as 1.5 µg/mL (≈ 3.35 µM) and the ED50 (guinea pig gall bladders) is reported as 2.08 mg/kg.

`CCCCCCN(CCCOC)C(=O)C(CCC(=O)O)NC(=O)c1ccc(Cl)c(Cl)c1` (stereo not shown) [Compound 17] gave an IC50 (guinea-pig gallbladder) of 1.6 µg/mL (≈ 3.37 µM) and an ED50 (guinea pig gall bladders) of 3.25 mg/kg.

`COCCCN(CCCC(C)(C)C)C(=O)C(CCC(=O)O)NC(=O)c1ccc(Cl)c(Cl)c1` (stereo not shown) [Compound 18] showed an IC50 (guinea-pig gallbladder) of 4.8 µg/mL (≈ 9.81 µM) and an ED50 (guinea pig gall bladders) of 6.79 mg/kg.

Work on `COCCCN(CCC(C)C)C(=O)C(CCC(=O)O)NC(=O)c1ccc(Cl)c(Cl)c1` (stereo not shown) [Compound 19] yielded an IC50 (guinea-pig gallbladder) of 0.6 µg/mL (≈ 1.3 µM), an ED50 (guinea pig gall bladders) of 0.74 mg/kg and an ED50 (digestive tract) of 18.5 mg/kg. It also gave an LD50 (in vivo) of 297 mg/kg and a selectivity ratio (in vivo) of 401.

Work on `CCCCCN(CCCOC)C(=O)C(CC(=O)O)NC(=O)c1ccc(Cl)c(Cl)c1` (stereo not shown) [Compound 20] yielded an IC50 (guinea-pig gallbladder) of 0.9 µg/mL (≈ 2.01 µM), an ED50 (guinea pig gall bladders) of 0.84 mg/kg and an ED50 (digestive tract) of 27.9 mg/kg. The LD50 (in vivo) was 362 mg/kg and the selectivity ratio (in vivo) was 431.

In the case of `CCCCCN(CCCOC)C(=O)C(CC(=O)O)NC(=O)c1ccc(C)c(C)c1` (stereo not shown) [Compound 21], the IC50 (guinea-pig gallbladder) is reported as 4.7 µg/mL (≈ 11.6 µM) and the ED50 (guinea pig gall bladders) is reported as 3.69 mg/kg.

With `CCCN(CCC)C(=O)C(CCC(=O)O)NC(=O)c1ccccc1` (stereo not shown) [Proglumide, reference compound] the IC50 (guinea-pig gallbladder) was 340 µg/mL (≈ 1020 µM), the “activity less than that of the most active compound in the invention” value (guinea-pig gallbladder; in vitro gallbladder) was “about 3000 times less” and the ED50 (guinea pig gall bladders) was 70.5 mg/kg. The “Antispastic activity in colon, EXPERIMENT 1” value (colon of rabbits; 25 mg/kg i.v.) was -33.7, the “Antispastic activity in colon, EXPERIMENT 2” value (colon of rabbits; 25 mg/kg i.v.) was 0 and the “Antispastic activity in colon, EXPERIMENT 1” value (colon of rabbits; 50 mg/kg i.v.) was -38.1. For the same compound, the “Antispastic activity in colon, EXPERIMENT 2” value (colon of rabbits; 50 mg/kg i.v.) was -16.1, the “Antispastic activity in colon, EXPERIMENT 1” value (colon of rabbits; 100 mg/kg i.v.) was -64.4 and the “Antispastic activity in colon, EXPERIMENT 2” value (colon of rabbits; 100 mg/kg i.v.) was -43.1. The ED50 (colon of rabbits; Oryctolagus cuniculus, iv) was 92.6 mg/kg, the “AMYLASE IN THE SERUM” value ([1]; 200 mg/kg ip + cerulein) was 48.2 U/ml and the “INHIBITION OF WEIGHT INCREASE” value ([1]; 200 mg/kg ip + cerulein) was 53.4%. The “INHIBITION OF WEIGHT INCREASE (pancreas)” value ([1]; 200 mg/kg ip + cerulein) was 38.1%, the “RATIO WEIGHT OF PANCREAS / ANIMAL WEIGHT” value ([1]; 200 mg/kg ip + cerulein) was 0.47% and the “AMYLASE IN THE SERUM” value ([1]; 400 mg/kg ip + cerulein) was 26.2 U/ml. The “INHIBITION OF WEIGHT INCREASE” value ([1]; 400 mg/kg ip + cerulein) was 80.9%, the “INHIBITION OF WEIGHT INCREASE (pancreas)” value ([1]; 400 mg/kg ip + cerulein) was 85.7% and the “RATIO WEIGHT OF PANCREAS / ANIMAL WEIGHT” value ([1]; 400 mg/kg ip + cerulein) was 0.37%. For the same compound, the ED50 ([1]; read-out: ED50 (inhibition of weight increase)) was 226 mg/kg, the ED50 ([1]; read-out: ED50, inhibition of weight increase of the pancreas) was 241 mg/kg and the “activity of proglumide in cerulein pancreatitis” value ([1]; in words) was “also active but at considerably higher doses”. For the same compound, the “AMYLASE IN THE SERUM” value ([2]; 200 mg/kg i.p. + taurocholate) was 14.5 U/ml, the “INHIBITION OF AMYLASE INCREASE” value ([2]; 200 mg/kg i.p. + taurocholate) was 45.5% and the “INHIBITION OF WEIGHT INCREASE” value ([2]; 200 mg/kg i.p. + taurocholate) was 21.4%. For the same compound, the “RATIO WEIGHT OF PANCREAS / ANIMAL WEIGHT” value ([2]; 200 mg/kg i.p. + taurocholate) was 0.49%, the “AMYLASE IN THE SERUM” value ([2]; 400 mg/kg i.p. + taurocholate) was 9.1 U/ml and the “INHIBITION OF AMYLASE INCREASE” value ([2]; 400 mg/kg i.p. + taurocholate) was 89.4%. The “INHIBITION OF WEIGHT INCREASE” value ([2]; 400 mg/kg i.p. + taurocholate) was 42.8%, the “RATIO WEIGHT OF PANCREAS / ANIMAL WEIGHT” value ([2]; 400 mg/kg i.p. + taurocholate) was 0.46% and the ED50 ([2]; read-out: ED50, inhibition of amylase increase) was 222 mg/kg. It also gave an ED50 ([2]; read-out: ED50, inhibition of weight increase) of 467 mg/kg, an LD50 (in vivo) of 2400 mg/kg and a selectivity ratio (in vivo) of 34.
